Results published in EP1144365B1 (TANABE SEIYAKU CO., LTD., priority 1998, dated 2000).

What was measured:
[1] = molecular target: T1, α4β1 integrin (Homo sapiens, UniProt P05556+P13612); assay: Jurkat-Endothelial Cell Adhesion Assay (Jurkat EC); type: cell-based; conditions: Jurkat cell adhesion to IL-1 stimulated endothelial cell monolayers
T1 construct: a T-cell line, Jurkat, known to express the α4β1 integrin; host or cells: Jurkat T-cell line
Procedure, shortened: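 BCECF-loaded Jurkat T cells (5 x 10^5) mixed with compound, generally 100, 20, 5 and 1.25 µM, in DMEM-HSA, added to HUVEC monolayers prestimulated 4 h with 0.1 ng/ml IL-1. After washing, adherent-cell fluorescence read; % adhesion relative to no-compound control set at 100%.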

[2] = molecular target: T2, α4β1 (Homo sapiens, UniProt P05556+P13612); assay: Jurkat-CS-1 assay; type: cell-based; conditions: Jurkat cell adhesion to immobilized CS-1 derived peptide
T2 construct: 100 µl of Jurkat cells (2.5 x 10^6 cells/ml) in DMEM plus BSA; host or cells: Jurkat T-cell line
T2 sequence (P13612 34-1032): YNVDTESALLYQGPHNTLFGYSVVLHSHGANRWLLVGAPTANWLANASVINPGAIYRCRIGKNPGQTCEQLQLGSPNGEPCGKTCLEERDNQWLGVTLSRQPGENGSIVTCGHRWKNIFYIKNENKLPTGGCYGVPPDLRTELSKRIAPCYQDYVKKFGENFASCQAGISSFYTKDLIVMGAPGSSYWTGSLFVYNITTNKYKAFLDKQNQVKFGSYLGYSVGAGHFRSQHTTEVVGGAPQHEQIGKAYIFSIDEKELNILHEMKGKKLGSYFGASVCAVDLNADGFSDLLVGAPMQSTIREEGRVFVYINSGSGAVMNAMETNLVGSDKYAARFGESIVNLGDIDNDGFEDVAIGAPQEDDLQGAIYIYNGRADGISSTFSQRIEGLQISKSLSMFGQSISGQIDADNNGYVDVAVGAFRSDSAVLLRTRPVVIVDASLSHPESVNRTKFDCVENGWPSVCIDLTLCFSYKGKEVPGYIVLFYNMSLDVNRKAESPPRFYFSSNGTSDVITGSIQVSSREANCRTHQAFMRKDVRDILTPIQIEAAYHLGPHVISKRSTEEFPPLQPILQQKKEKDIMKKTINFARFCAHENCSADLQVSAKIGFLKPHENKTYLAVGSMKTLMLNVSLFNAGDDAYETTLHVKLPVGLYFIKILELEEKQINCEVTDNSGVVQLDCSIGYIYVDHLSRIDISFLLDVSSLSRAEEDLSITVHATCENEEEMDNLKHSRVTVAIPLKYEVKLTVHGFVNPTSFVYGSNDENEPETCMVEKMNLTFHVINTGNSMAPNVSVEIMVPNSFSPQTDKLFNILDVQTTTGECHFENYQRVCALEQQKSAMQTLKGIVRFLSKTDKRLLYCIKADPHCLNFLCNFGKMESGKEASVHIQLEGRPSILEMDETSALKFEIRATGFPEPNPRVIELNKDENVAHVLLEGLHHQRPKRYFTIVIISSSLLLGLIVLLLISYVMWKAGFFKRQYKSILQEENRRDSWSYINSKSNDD
T2 sequence (P05556 21-798): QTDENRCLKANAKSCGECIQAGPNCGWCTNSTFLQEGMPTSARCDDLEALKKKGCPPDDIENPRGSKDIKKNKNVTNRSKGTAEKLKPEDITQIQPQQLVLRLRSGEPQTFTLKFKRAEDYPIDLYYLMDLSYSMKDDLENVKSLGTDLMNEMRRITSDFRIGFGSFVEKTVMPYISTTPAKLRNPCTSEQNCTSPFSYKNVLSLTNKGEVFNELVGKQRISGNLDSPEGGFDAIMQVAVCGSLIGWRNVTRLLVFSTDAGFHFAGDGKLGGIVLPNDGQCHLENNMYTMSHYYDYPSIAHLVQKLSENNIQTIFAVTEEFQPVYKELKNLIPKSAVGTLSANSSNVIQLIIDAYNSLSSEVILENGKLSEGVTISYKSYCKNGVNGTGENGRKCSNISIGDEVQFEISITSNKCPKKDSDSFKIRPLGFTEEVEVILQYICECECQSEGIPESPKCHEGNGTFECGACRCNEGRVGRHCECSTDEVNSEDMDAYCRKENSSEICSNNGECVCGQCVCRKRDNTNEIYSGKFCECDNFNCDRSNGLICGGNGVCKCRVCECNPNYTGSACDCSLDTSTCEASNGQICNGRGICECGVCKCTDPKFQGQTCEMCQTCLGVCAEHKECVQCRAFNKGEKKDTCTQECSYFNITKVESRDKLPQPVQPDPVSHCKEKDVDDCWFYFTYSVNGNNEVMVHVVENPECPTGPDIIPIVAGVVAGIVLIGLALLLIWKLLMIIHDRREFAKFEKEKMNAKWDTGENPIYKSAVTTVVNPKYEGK

T1 sequence (P13612 34-1032): as the sequence (P13612 34-1032) above
T1 sequence (P05556 21-798): as the sequence (P05556 21-798) above

CC(=O)[C@@H]1C[C@H](C(=O)N[C@@H](Cc2ccc(NC(=O)c3cccnc3Cl)cc2)C(=O)O)C1(C)C [Example 105, (1S-cis)-N-[(3-Acetyl-2,2-dimethylcyclobutyl)carbonyl]-4-[[(2-chloro-3-pyridinyl)carbonyl]amino]-L-phenylalanine]
IC50 [1]: 800 to 5000 nM
IC50 [2]: 80 to 500 nM

O=C(O)/C=C/C(=O)NC1(C(=O)N[C@@H](Cc2ccc(NC(=O)c3c(Cl)cccc3Cl)cc2)C(=O)O)CCCCC1 [Example 50]
IC50 [1]: 5000 to 10000 nM
IC50 [2]: 500 to 1000 nM

O=C(O)/C=C/c1cccc(C(=O)N[C@@H](Cc2ccc(NC(=O)c3c(Cl)cccc3Cl)cc2)C(=O)O)c1 [Example 124, N-[[3-[(E)-3-Hydroxy-3-oxo-1-propenyl]phenyl]carbonyl]-4-[(2,6-dichlorobenzoyl)amino]-L-phenylalanine]
IC50 [1]: 800 to 5000 nM
IC50 [2]: 500 to 1000 nM

O=C(O)CC1(CC(=O)NC2(C(=O)N[C@@H](Cc3ccc(NC(=O)c4c(Cl)cccc4Cl)cc3)C(=O)O)CCCCC2)CCCC1 [Example 47]
IC50 [1]: 5000 to 10000 nM
IC50 [2]: 80 to 500 nM

O=C(Nc1ccc(C[C@H](NC(=O)C2(NC(=O)C3CCCO3)CC3CCC2C3)C(=O)O)cc1)c1c(Cl)cccc1Cl (stereo partly drawn) [Example 77]
IC50 [1]: ≤ 800 nM
IC50 [2]: 80 to 500 nM

O=C(Nc1ccc(C[C@H](NC(=O)[C@H]2CC[C@@H](C(=O)O)C2)C(=O)O)cc1)c1c(Cl)cccc1Cl (mixture of isomers) [Example 112, N-[cis-(3-Carboxycyclopentyl)carbonyl]-4-[(2,6-dichlorobenzoyl)amino]-L-phenylalanine]
IC50 [1]: 800 to 5000 nM
IC50 [2]: 80 to 500 nM

CC1(C)[C@@H](C(=O)O)C[C@@H]1C(=O)N[C@@H](Cc1ccc(NC(=O)c2c(Cl)cccc2Cl)cc1)C(=O)O [Example 98, (1S-trans)-N-[(3-Carboxy-2,2-dimethylcyclobutyl)carbonyl]-4-[(2,6-dichlorobenzoyl)amino]-L-phenylalanine]
IC50 [1]: ≤ 800 nM
IC50 [2]: 80 to 500 nM

CC(=O)[C@H]1C[C@H](C(=O)N[C@@H](Cc2ccc(NC(=O)c3c(Cl)cccc3Cl)cc2)C(=O)O)C1(C)C [Example 96, (1S-trans)-N-[(3-Acetyl-2,2-dimethylcyclobutyl)carbonyl]-4-[(2,6-dichlorobenzoyl)amino]-L-phenylalanine]
IC50 [1]: ≤ 800 nM
IC50 [2]: ≤ 80 nM

O=C(Nc1ccc(C[C@H](NC(=O)N2CCCC(C(=O)O)C2)C(=O)O)cc1)c1c(Cl)cccc1Cl (stereo partly drawn) [Example 116, 1-[[[(1S)-1-carboxy-2-[4-[(2,6-dichlorobenzoyl)amino]phenyl]ethyl]amino]carbonyl]-3-piperidinecarboxylic acid]
IC50 [1]: ≤ 800 nM
IC50 [2]: 80 to 500 nM

O=C(O)c1cncc(C(=O)NC2(C(=O)N[C@@H](Cc3ccc(NC(=O)c4c(Cl)cccc4Cl)cc3)C(=O)O)CCCCC2)c1 [Example 59]
IC50 [1]: 800 to 5000 nM
IC50 [2]: 80 to 500 nM

CC(=O)CCC(=O)NC1(C(=O)N[C@@H](Cc2ccc(NC(=O)c3c(Cl)cccc3Cl)cc2)C(=O)O)CCCCC1 [Example 53]
IC50 [1]: ≤ 800 nM
IC50 [2]: ≤ 80 nM

CC(=O)[C@@H]1C[C@@H](C(=O)N[C@@H](Cc2ccc(NC(=O)c3c(Cl)cccc3Cl)cc2)C(=O)O)C1(C)C [Example 100, (1R-trans)-N-[(3-Acetyl-2,2-dimethylcyclobutyl]carbonyl]-4-[(2,6-dichlorobenzoyl)amino]-L-phenylalanine]
IC50 [1]: 800 to 5000 nM
IC50 [2]: 80 to 500 nM

CC(C)(Sc1ccccc1C(=O)O)C(=O)N[C@@H](Cc1ccc(NC(=O)c2c(Cl)cccc2Cl)cc1)C(=O)O [Example 25]
IC50 [1]: ≤ 800 nM
IC50 [2]: 500 to 1000 nM

O=C(O)/C=C\C(=O)NC1(C(=O)N[C@@H](Cc2ccc(NC(=O)c3c(Cl)cccc3Cl)cc2)C(=O)O)CCCCC1 [Example 49]
IC50 [1]: ≤ 800 nM
IC50 [2]: 80 to 500 nM

O=C(NC1CCCCC1C(=O)NC(Cc1ccc(NC(=O)c2c(Cl)cccc2Cl)cc1)C(=O)O)c1cc(C(=O)O)[nH]n1 (stereo not drawn) [Example 83]
IC50 [1]: ≤ 800 nM
IC50 [2]: ≤ 80 nM
